The results in this text go back to patent US12071648B2, “Ex vivo model of inflamed human skin and uses thereof for screening anti-inflammatory compounds” (GENOSKIN, priority 2017, dated 2024).

Common to all, as to type: cell-based, human
The subject of assay [1] is ex vivo model of inflamed skin (Hypo-InflammaSkin). As to the kind of experiment: Histology analysis (hematoxylin and eosin) of the Hypo-InflammaSkin model after subcutaneous injection. The procedure:
In a second embodiment, the hypodermis is preserved. The biopsies (epidermis, dermis, and hypodermis), the thickness of which is about 1 cm, are then cut out using a metal punch. This second embodiment is for testing anti-inflammatory compounds by subcutaneous injection.
(§1) In order to test the relevance of the model of inflamed skin obtained by the method of the invention (Hypo-InflammaSkin®), an antibody known for its anti-inflammatory effect was tested. This is the adalimumab anti-TNFα antibody. Biopsies of inflamed skin (Hypo-InflammaSkin®−I) with a thickness of 1 cm were obtained by the method of the invention. A subcutaneous injection (namely into the […]) of 50 nM adalimumab was performed at TO (prophylactic treatment, Hypo-InflammaSkin®−I+anti-TNFα−P) or after 3 days of ex vivo culture of the inflamed biopsy (therapeutic treatment, Hypo-InflammaSkin®−I+anti-TNFα−T). After 7 days of ex vivo culture, the culture media are taken, and skin biopsies are fixed in a 10% formalin solution and then embedded in paraffin blocks. Serial sections of a constant thickness of 5 μm of the biopsies are made. The morphological appearance of the skin biopsies is studied under optical microscopy using hematoxylin and eosin staining. The presence of psoriasin (S110A7) is identified by fluorescence microscopy (Leica DM 5000 microscope) using an anti-S100A7 antibody coupled to a fluorochrome. […]

In assay [2] the test system is IL-22. As to the kind of experiment: IL-22 secretion by the Hypo-InflammaSkin model. The procedure: (§2) The cytokines IL-17A, IL-22, and IFNγ produced by the model were analyzed in the culture media by an ELISA assay using a specific detection kit from Meso Scale Discovery (U-PLEX TH17 Combo 2 Human Reference K15076K) and using a multiplex assay platform (MESO QuickPlex SQ 120).
as §1

The test system of a further assay is psoriasin (S100A7). In words: Psoriasin detection by fluorescence microscopy in the Hypo-InflammaSkin model. Particulars: inflamed biopsy treated by subcutaneous injection of 50 nM, 7 days of ex vivo culture. On the procedure: In order to test the relevance of the model of inflamed skin obtained by the method of the invention (Hypo-InflammaSkin®), an antibody known for its anti-inflammatory effect was tested. This is the adalimumab anti-TNFα antibody. Biopsies of inflamed skin (Hypo-InflammaSkin®−I) with a thickness of 1 cm were obtained by the method of the invention. A subcutaneous injection (namely into the […]) of 50 nM adalimumab was performed at TO (prophylactic treatment, Hypo-InflammaSkin®−I+anti-TNFα−P) or after 3 days of ex vivo culture of the inflamed biopsy (therapeutic treatment, Hypo-InflammaSkin®−I+anti-TNFα−T). After 7 days of ex vivo culture, the culture media are taken, and skin biopsies are fixed in a 10% formalin solution and then embedded in paraffin blocks. Serial sections of a constant thickness of 5 μm of the biopsies are made. The morphological appearance of the skin biopsies is studied under optical microscopy using hematoxylin and eosin staining. The presence of psoriasin (S110A7) is identified by fluorescence microscopy (Leica DM 5000 microscope) using an anti-S100A7 antibody coupled to a fluorochrome. The cell nuclei are marked with DAPI. Biopsies of non-inflamed skin (HypoSkin®−biopsies including the epidermis, dermis, and hypodermis) are used for control.

For a further assay, the system named is TNFα. In words: TNFα secretion by the InflammaSkin ex vivo model of inflamed skin.
In assay [3] the test system is IL-22. As to the kind of experiment: IL-22 secretion by the InflammaSkin ex vivo model of inflamed skin, ELISA of culture media. On the procedure:
(§3) Using a clamp, the skin biopsy is held flat, with the dermis on top. A needle with no dead volume is inserted into the biopsy from the side of the dermis using a 701N or 705N Hamilton syringe (for 8 mm or 15 mm diameter biopsies, respectively). 10 μL or 35 μL of the activation solution (50 ng/μL anti-CD3 antibody, 50 ng/μL anti-CD28 antibody, and 10 ng/mL IL-2) for biopsies of 8 or 15 mm diameter, respectively, are injected from the side of the biopsy to avoid damage to the epidermis.
(§4) In WILLIAM'S E synthetic culture medium, the following supplements are added: 10 ng/mL IL-1β, 50 ng/mL IL-23, and 10 ng/mL TGFbeta. The culture is carried out for 7 days in a CO2 incubator at 37° C. The culture medium containing the supplements is changed daily.
as §2
(§5) In order to test the relevance of the model of inflamed skin obtained by the method of the invention, compounds known for their anti-inflammatory effect were tested. These are betamethasone di-propionate and the PDE4 inhibitor. […]
Background: In an ELISA, binding on a coated surface is turned into a signal by an enzyme label.

The subject of assay [4] is ex vivo model of inflamed skin (InflammaSkin). As to the kind of experiment: Histological analysis of the InflammaSkin model after topical treatment. The procedure:
as §3, §4
The skin biopsy treated according to steps a) and b) of the method of the invention is dehydrated by an alcohol bath, and then passed through a xylene bath. A first bath in paraffin allows to replace the water previously contained in the skin explant by paraffin.
Serial sections of a thickness varying from 4 to 5 μm are then made along the entire length of the paraffin block containing the sample.
as §5

A further assay deals with IFNγ. In words: IFNγ secretion by the InflammaSkin ex vivo model of inflamed skin, ELISA of culture media. The procedure:
as §3, §4, §2, §5

For the next assay, the system named is IL-17A. As to the kind of experiment: IL-17A secretion by the InflammaSkin ex vivo model of inflamed skin, ELISA of culture media. On the procedure: as §3, §4, §2, §5

For adalimumab, the “integrity and structure of the skin, more particularly the epidermis, and epidermal cell viability” value in assay [1] (prophylactic treatment, subcutaneous injection of 50 nM at T0, 7 days of ex vivo culture (FIG. 13)) is listed as “preserved”; in assay [1] (therapeutic treatment, subcutaneous injection of 50 nM after 3 days of culture, 7 days of ex vivo culture (FIG. 13)) it was “preserved”. The IL-22 secretion result in the assay on IL-22 [2] (prophylactic treatment, subcutaneous injection of 50 nM at T0, compared to untreated inflamed biopsy (FIG. 14)) is “strongly inhibited”; in the assay with IL-22 [2] (therapeutic treatment, subcutaneous injection of 50 nM after 3 days of culture, compared to untreated inflamed biopsy (FIG. 14)), “strongly inhibited”. Further, the presence of psoriasin entry in the assay with psoriasin (S100A7) was “almost undetectable”.
In the case of `CCC(=O)OCC(=O)[C@@]1(OC(=O)CC)[C@@H](C)C[C@H]2[C@@H]3CCC4=CC(=O)C=C[C@]4(C)[C@@]3(F)[C@@H](O)C[C@@]21C` [betamethasone di-propionate], the TNFα secretion entry is “strongly inhibited” in the assay with TNFα (prophylactic treatment, topical 10 μL daily until 7th day of culture, compared to placebo control (FIG. 9A)) and “strongly inhibited” in the assay with TNFα (therapeutic treatment, topical from 3 days of culture, daily until 7th day (FIG. 9B)). For the same compound, the IL-22 secretion result is reported as “strongly inhibited” in the assay with IL-22 [3] (prophylactic treatment, topical 10 μL daily until 7th day of culture, compared to placebo control (FIG. 7A)) and “inhibits IL-22 secretion” with IL-22 [3] (therapeutic treatment, topical from 3 days of culture, daily until 7th day (FIG. 7B)). For the same compound, the “histological abnormalities in the epidermis” value in assay [4] (after 7 days of culture (FIG. 5 legend)) was “total absence of histological abnormalities in the epidermis”. In addition, in assay [4] (prophylactic treatment, compared to placebo controls (FIG. 5)), the “integrity and structure of the skin, particularly the epidermis, and viability of epidermal cells” value is listed as “preserved”. In addition, the IFNγ secretion entry is reported as “strongly inhibited” in the assay with IFNγ (prophylactic treatment, topical 10 μL daily until 7th day of culture, compared to placebo control (FIG. 8A)) and “inhibits IFNγ secretion” with IFNγ (therapeutic treatment, topical from 3 days of culture, daily until 7th day (FIG. 8B)). Further, the IL-17A secretion result is recorded as “strongly inhibited” in the assay with IL-17A (prophylactic treatment, topical 10 μL daily until 7th day of culture, compared to placebo control (FIG. 6A)) and “inhibits IL-17A secretion” in the assay with IL-17A (therapeutic treatment, topical from 3 days of culture, daily until 7th day (FIG. 6B)).
